Legend:
[1] = system: meningococcal colonization of the human dermal vasculature; test: In vivo infection of mice engrafted with human skin
[2] = system: Enteropathogenic Escherichia Coli (EPEC escN mutant, GFP) microcolonies on HBMEC; test: Dispersion of EPEC microcolonies at the surface of human endothelial cells; assay type: cell-based; conditions: 10 to 50 μM, 30 min, dose-dependent
Procedure: Human bone marrow microvascular endothelial cells (HBMEC) were infected with a GFP-expressing mutant Enteropathogenic Escherichia Coli, which lacks the ATPase escN (EPEC […]escN-GFP) for 2 h, then treated with Trifluoperazine (10-50 μM) for 30 minutes, before fixation and immunofluorescence analysis using Alexa Fluor 633 Phalloidin. (A) Representative fluorescence microscopy showing bacterial colony (white dots) formed at the surface of the endothelial cells. (B) Quantification of the bacterial colonization was performed using Image J software.
HBMEC were grown on Thermanox coverslips coated with gelatin 2% for 2 days to reach confluency. Cells were then infected for 1 h with a GFP-expressing mutant Enteropathogenic Escherichia Coli (EPEC), which lacks the ATPase escN. This strain is unable to translocate effector proteins and is more prone to form pilus-dependent microcolony at the host cell surface (Jensen et al., 2015). Cells were then washed three times with medium to remove non-adherent bacteria and infection was pursued for 1 extra hour, to allow bacterial growth at the endothelial cell surface to form microcolonies. Trifluoperazine was then added to obtain final concentrations of 10, 20, 30 and 50 μM. After incubation for 30 minutes, cells were washed and fixed in 4% Paraformaldehyde for 10 min, washed three times with PBS. […] Quantification was done with ImageJ software (NIH). […]

[3] = system: HBMECs infected with meningococci; test: PECAM-1 recruitment at bacterial adhesion sites in infected HBMEC; assay type: cell-based, human; conditions: 5 μM, 2 h infection
Procedure: (A) Monolayers of HBMECs were non-infected or infected for 2 h with meningococci and the effect on the localisation of the endothelial cell junction proteins PECAM-1 and […]-catenin was analysed by immunofluorescence analysis. Arrows point at PECAM-1 molecules recruited at bacterial adhesion sites (B) HBMECs were infected for 2 h with meningococci in the presence or in the absence of 5 μM Trifluoperazine and the effect on junctional PECAM-1 and on the endothelial cell cytoskeleton remodelling (Ezrin, Actin) was analysed by immunofluorescence analysis. (C) Quantification of Actin and PECAM-1 recruitment at sites of bacterial adhesion was performed using Image J software.
HDMECs were grown in their specific culture medium (Promocell #C-12210) and confluent monolayers were infected with 2C4.3. Briefly, bacteria were precultured in prewarmed cell culture medium for 1 h 30 min at 37° C. 5% CO2. The OD600 was adjusted to 0.1 and HDMECs were then overlaid with bacteria for 30 min (MOI of 100). Unbound bacteria were removed by three washes in cell culture media and infection was allowed to proceed for 1 h at 37° C. 5% CO2. Gentamicin was added at 150 μg/ml for 1 h, then after three washes in cell culture media, Trifluoperazine was applied where mentioned at 50 μM for 20 min. […] Quantifications were done using ImageJ software (NIH).

[4] = system: meningococcal colonization of human brain vessels; set-up: species or system Neisseria meningitidis; conditions: 40 μM for 30 min
Source text: Fresh human brain sections were obtained from frontal lobe specimens of macroscopically and histologically normal brain (confirmed by a neuropathologist) of individuals referred to the Department of Forensic Medicine for unexplained out-of-hospital sudden death (consent forms ML1094, PFS 10-008, ClinicalTrials.gov NCT00320099 from The Institutional Review Boards of the Poincare Hospital, Versailles-Saint Quentin University and the French “Agence de la Biomédecine”). After freezing of the brain tissue with isopentane cooled in liquid nitrogen, the sections, 7 μm thick, containing leptomeninges, cortical ribbon and the underlying white matter were immobilised on Superfrost™ plus microscope slides and stored at −80° C. […] Adherent meningococci were detected by immunofluorescence analysis: brain sections were incubated with the following primary antibodies for 2 h in PBS/BSA 0.1%: monoclonal anti-human CD31/PECAM-1 mouse monoclonal antibody (clone HEC7, ABCAM, ab119339) and a rabbit polyclonal serum anti-Nm 2C4.3 strain (1:3000). […] Entire samples were scanned using a Lamina (Perkin Helmer) and were further analysed using confocal microscopy (spinning disk Leica, 63×). Quantification analysis of the images (n=50 per section) was performed using ImageJ software (NIH). […]

[5] = system: Nm2C4.3 microcolonies on HCMEC/D3; assay type: cell-based, Neisseria meningitidis
[6] = system: HDMECs colonized by N. meningitidis; test: Basement membrane remodelling: Gelatin-FITC matrix degradation by infected HDMEC; assay type: cell-based, human; conditions: infected cells, 150 μg/ml Gentamicin alone, 24 h post-infection
Procedure: (A) Experimental procedure: HDMECs grown on a fluorescent matrix (Gelatin-Fitc) were colonized by N. meningitidis for 6 h. They were then treated with 150 μg/ml gentamicin for 1 h, then 15 min with Trifluoperazine (50 μM) (or solvent alone as control) and incubated for further 15 h in the presence of 150 μg/ml gentamicin. (B) Fluorescence microscopy was used to visualize cells stained with labelled phalloidin and the fluorescent matrix. The presence of dark zones corresponds to zones of matrix degradation. (C) Quantification of the percentage of matrix degradation, using Image J software.
Plastic coverslips (13 mm diameter) (Nalgen #174950) were washed in ethanol 70%, dried then coated with poly-L-lysine 1 mg/ml for 20 min at room temperature. After one wash in sterile PBS, 0.5% Glutaraldehyde was added for 15 min at room temperature. After three washes in PBS, Gelatin-FITC (0.2 mg/ml Invitrogen #G13187) was added for 10 minutes at room temperature in the dark. Coverslip were then washed with sterile PBS and treated with 5 mg/ml sodium borohydride for 3 min. After three washes in sterile PBS, 10^5 HDMECs (PromoCell #C-12210) were seeded per well in their PromoCell culture medium and incubated overnight at 37° C. 5% CO2. The day after, cells were infected with Neisseria meningitidis Nm2C4.3, as above described. […] Quantifications were performed using ImageJ software (NIH).

SMILES | colonization of the human dermal vasculature ([1]; mice engrafted with human skin) | incidence of vascular alteration ([1]; mice engrafted with human skin) | signs of intravascular coagulation ([1]; mice engrafted with human skin) | hallmark of vascular inflammation ([1]; trifluoperazine alone or in combination with cefotaxime) | dispersion of EPEC microcolonies [2] | PECAM-1 recruitment at bacterial adhesion sites [3] | bacterial colonization [3] | reduction of vascular colonization of the human brain vessels [4] [%] | concentration range of dose-dependent microcolony dispersion ([5]; 30 min, HCMEC/D3) [µM] | dispersion of microcolonies on human brain endothelial cells ([5]; treatment for 30 min) | degradation of the basement membrane [6]
CN1CCN(CCCN2c3ccccc3Sc3ccc(C(F)(F)F)cc32)CC1 [Trifluoperazine] | prevents the massive colonization | reduces incidence of vascular alteration | reduces the signs of intravascular coagulation | drastically reduced | induced the dispersion | prevented PECAM-1 recruitment | did not affect | 80 | 10 to 40 | induced their dispersion | –
CN[C@@H]1[C@@H](O)C(O[C@@H]2[C@@H](O)[C@H](O[C@H]3O[C@H]([C@@H](C)NC)CC[C@H]3N)[C@@H](N)C[C@H]2N)OC[C@]1(C)O (stereo partly drawn) [Gentamicin, (3R,4R,5R)-2-{[(1S,2S,3R,4S,6R)-4,6-diamino-3-{[(2R,3R,6S)-3-amino-6-[(1R)-1-(methylamino)ethyl]oxan-2-yl]oxy}-2-hydroxycyclohexyl]oxy}-5-methyl-4-(methylamino)oxane-3,5-diol] | – | – | – | – | – | – | – | – | – | – | about 20%

From US20200054646A1, “USE OF PHENOTHIAZINE DERIVATIVE IN THE TREATMENT OF INFECTIOUS PURPURA OR PURPURA FULMINANS” (priority 2016, published 2020)
